Measured values taken from US4518611A, “2-Furylbutyrolactone modulation of the immune system in mammals” (priority 1983, dated 1985).
“Also recorded” adds a separate entry of the source. Like-named read-outs stand apart in the source and are kept apart here.

What was measured:
C57BL/6 mice = settings: for Number Dead on Day 3: ten mice per dose
Experimental: Single dose LD50 in C57BL/6 mice for Cpd. 1 is determined following the method of Spearman and Karber described in Basic Exercises in Immunochemistry, 1979. Briefly, 0.5 ml of each dose is given to each of ten mice. The survivors are counted after 3 days and the LD50 is calculated using the following formula: [formula] where D=fold diferences between doses, R=total number dead, and N=total number of animals tested.

KLH antibody response = settings: for increase of antibody titer over control (fold): 200 and 400 mg/kg
From the text: (§1) The effect of the compounds of this invention on the immune response to specific antigens involves immunization of mice with specific antigens such as bovine serum albumin (BSA) or keyhole limpet hemocyanin (KLH). Following immunization, it is possible to assess the cell-mediated or humoral (antibody) immune response to these antigens by various methods:
(2) Antibody response to soluble antigens such as BSA or KLH can be quantitated using a micro-ELISA solid phase heterogeneous immunoassay. The assay can be designed to quantitate class specific immunoglobulins (i.e., IgG or IgM).
(§2) Mice of the C57BL/6 strain are given i.p. injections of either 50, 100, 200 or 400 mg/kg of Cpd. 1 or buffer for ten days (days 1-10). An antigen, keyhole limpet hemocyanin (KLH), is administered intraperitoneally with Freund's Complete Adjuvant (FCA) on days 1, 7, and 13. Blood samples are taken for assay of the antibody response on days 0, 5, 12, and 17. Spleens are removed, lymphocytes isolated and a lymphocyte stimulation assay with PHA, Con-A or KLH antigen as the mitogens is performed on day 17 of the experiment.

human lymphocytes = assay: In vitro lymphocyte stimulation assay, human lymphocytes; format: cell-based
Experimental: The purpose of this assay is to challenge lymphocytes in microcultures with one or more polyclonal mitogens at concentrations that will induce mitogenesis within 72 hours of stimulation.
In the mouse model, spleens are removed from different strains of mice and the spleen cells are teased free and suspended in RPMI-1640 tissue culture medium at a concentration of usually […]. These cells are dispensed at a concentration of 5.0×10^5 cells per microculture well in a 96 well flat bottom 96 well tissue culture plate. All testing of the compounds of this invention or mitogens are done in replicates of 10. The cells are then treated with PHA, Con-A, specific antigens, or buffer only. If in vitro testing is done, varying concentrations of the compounds of this invention or buffer only are added to the cells as well. After treatment with the mitogens and/or compounds of this invention, the cells are incubated for 72 hours. The response of these cells to mitogens and/or the compounds of this invention is assessed using ^14 C-thymidine labeling on the fourth day at a concentration of 0.01 μCi/well. The labeled cells are harvested using a lymphocyte harvestor and placed onto fibrous paper discs. A scintillation cocktail is added to vials containing the discs and the results are obtained using a LKB-liquid scintillation counter (Model 1216/Rackbeta II). The data is expressed as a ratio of the cpm of the mitogen stimulated group to the control (nonmitogen) treated group=lymphocyte stimulation index (LSI).
The lymphocyte stimulation assay may be performed directly on spleen cells obtained from various strains of mice not treated with the compounds of this invention or on lymphocytes obtained from human […]. […] Alternatively, the mice may be treated in vivo with the compounds of this invention by intraperitoneal multi-dose schedules, followed by sacrifice and harvesting spleen lymphocytes. These cells are then tested for their response to polyclonal mitogens or specific antigens used to immunize the mice. In this system however, no additional compound is added to the in vitro lymphocyte stimulation assay system.
Lymphocytes isolated from 5 human volunteers are treated in vitro with PHA and Con-A and either 0.1, 1, 10, 50, or 100 μg/well of Cpd. 1, 0.1, 1, 10, 50, or 100 μg/well of AA, or buffer.

spleen lymphocytes [1] = settings: for stimulation of DNA synthesis (in words): BSA
From the text: as §1
(§3) (1) Lymphocyte stimulation assays can be performed using varying concentrations of the specific antigens as mitogens in the lymphocyte stimulation microculture system described above. The only difference is that the incubation period is extended to five days instead of three as for the polyclonal mitogens.
Mice of the C57BL/6 strain are given i.p. injections of either 50, 100, 200 or 400 mg/kg of Cpd. 1 or buffer for twelve days (days 1-12). An antigen, bovine serum albumin (BSA), is administered intraperitoneally with Freund's Complete Adjuvant (FCA) on days 1, 7 and 14. Blood samples are taken for assay of the antibody response on days 0, 5, 13, and 19.

spleen lymphocytes [2] = system: spleen lymphocytes
From the text: as §1, §3, §2

## Cc1ccc(C2(O)C(=O)OC3C(O)COC32O)o1.Cc1ccc(C2(O)C(=O)OC3C(O)COC32O)o1.O=C1CCC(=O)O1 (stereo not shown) [Cpd. 1, 2-furylbutyrolactone:succinic anhydride]
C57BL/6 mice; 1,000 mg/kg single i.p.
  Number Dead on Day 3: 0
C57BL/6 mice; 2,000 mg/kg single i.p.
  Number Dead on Day 3: 0
C57BL/6 mice; 4,000 mg/kg single i.p.
  Number Dead on Day 3: 7
C57BL/6 mice; 8,000 mg/kg single i.p.
  Number Dead on Day 3: 10
C57BL/6 mice; 16,000 mg/kg single i.p.
  Number Dead on Day 3: 10
C57BL/6 mice; purified Cpd. 1, single i.p. injection, 4320 min
  LD50: > 3000 mg/kg
KLH antibody response; 50 mg/kg i.p., Day 5
  Micro-ELISA Titer: N/R
KLH antibody response; 50 mg/kg i.p., Prebleed
  Micro-ELISA Titer: N/R
KLH antibody response; 100 mg/kg i.p., Day 5
  Micro-ELISA Titer: N/R
KLH antibody response; 100 mg/kg i.p., Prebleed
  Micro-ELISA Titer: N/R
KLH antibody response; 200 mg/kg i.p., Day 5
  Micro-ELISA Titer: N/R
KLH antibody response; 200 mg/kg i.p., Prebleed
  Micro-ELISA Titer: N/R
KLH antibody response; 400 mg/kg i.p., Day 5
  Micro-ELISA Titer: N/R
KLH antibody response; 400 mg/kg i.p., Prebleed
  Micro-ELISA Titer: N/R
KLH antibody response; day 12
  increase of antibody titer over control (fold): four-fold
KLH antibody response; day 17
  increase of antibody titer over control (fold): eight-fold
Human lymphocytes; 0.1 μg/well
  Lymphocyte Stimulation Index, Con-A: 38.06
  Lymphocyte Stimulation Index, PHA: 56.67
Human lymphocytes; 1.0 μg/well
  Lymphocyte Stimulation Index, Con-A: 32.63
  Lymphocyte Stimulation Index, PHA: 48.60
Human lymphocytes; 10 μg/well
  Lymphocyte Stimulation Index, Con-A: 23.82
  Lymphocyte Stimulation Index, PHA: 34.37
Human lymphocytes; 50 μg/well
  Lymphocyte Stimulation Index, Con-A: 1.33
  Lymphocyte Stimulation Index, PHA: 0.40
Human lymphocytes; 100 μg/well
  Lymphocyte Stimulation Index, Con-A: 0.44
  Lymphocyte Stimulation Index, PHA: 0.544
Human lymphocytes; in vitro, PHA and Con-A
  effect on lymphocyte response (in words): a high dose anti-proliferative effect, at doses of 100 and 50 μg/ml; also recorded: markedly increased lymphocyte response at very low doses of 1 and 0.1 μg/ml
Spleen lymphocytes [1]; 50 mg/kg, BSA 0 μg/well, Day 19
  Lymphocyte Stimulation Index: .26
Spleen lymphocytes [1]; 50 mg/kg, day 19
  stimulation of DNA synthesis (in words): This effect has waned by day 19
Spleen lymphocytes [1]; 100 mg/kg, BSA 0 μg/well, Day 19
  Lymphocyte Stimulation Index: 4.1
Spleen lymphocytes [1]; 100 mg/kg, BSA 0.01 μg/well, Day 13
  Lymphocyte Stimulation Index: 9.8
Spleen lymphocytes [1]; 100 mg/kg, BSA 1.0 μg/well, Day 19
  Lymphocyte Stimulation Index: .26
Spleen lymphocytes [1]; 200 mg/kg, BSA 0 μg/well, Day 19
  Lymphocyte Stimulation Index: 0.42
Spleen lymphocytes [1]; 200 mg/kg, BSA 1 μg/well, Day 13
  Lymphocyte Stimulation Index: 14.0
Spleen lymphocytes [1]; 400 mg/kg, BSA 0 μg/well, Day 19
  Lymphocyte Stimulation Index: 5.0
Spleen lymphocytes [1]; day 13
  stimulation of DNA synthesis (in words): Only the 50 mg/kg dose shows significant stimulation of DNA synthesis on day 13 compared to controls
Spleen lymphocytes [2]; 50 mg/kg, Day 17
  Lymphocyte Stimulation Index, Con-A: 19.0
Spleen lymphocytes [2]; 50 mg/kg, KLH 0.025 μg/well, Day 17
  Lymphocyte Stimulation Index: 0.0386
Spleen lymphocytes [2]; 50 mg/kg, KLH 0.05 μg/well, Day 17
  Lymphocyte Stimulation Index: 0.357
Spleen lymphocytes [2]; 50 mg/kg, KLH 0.5 μg/well, Day 17
  Lymphocyte Stimulation Index: 0.415
Spleen lymphocytes [2]; 50 mg/kg, KLH 1.0 μg/well, Day 17
  Lymphocyte Stimulation Index: 0.536
Spleen lymphocytes [2]; 100 mg/kg, KLH 0.025 μg/well, Day 17
  Lymphocyte Stimulation Index: 0.401
Spleen lymphocytes [2]; 100 mg/kg, KLH 0.05 μg/well, Day 17
  Lymphocyte Stimulation Index: 0.526
Spleen lymphocytes [2]; 100 mg/kg, KLH 0.5 μg/well, Day 17
  Lymphocyte Stimulation Index: 0.734
Spleen lymphocytes [2]; 100 mg/kg, KLH 1.0 μg/well, Day 17
  Lymphocyte Stimulation Index: 0.898
Spleen lymphocytes [2]; 200 mg/kg, Con-A or KLH, day 17
  lymphocyte DNA synthesis (in words): statistically significant increase in lymphocyte DNA synthesis
Spleen lymphocytes [2]; 200 mg/kg, KLH 0.025 μg/well, Day 17
  Lymphocyte Stimulation Index: 3.91
Spleen lymphocytes [2]; 200 mg/kg, KLH 0.05 μg/well, Day 17
  Lymphocyte Stimulation Index: 1.02
Spleen lymphocytes [2]; 200 mg/kg, KLH 0.5 μg/well, Day 17
  Lymphocyte Stimulation Index: 4.26
Spleen lymphocytes [2]; 200 mg/kg, KLH 1.0 μg/well, Day 17
  Lymphocyte Stimulation Index: 7.45
Spleen lymphocytes [2]; 400 mg/kg, Day 17
  Lymphocyte Stimulation Index, Control (no mitogen): 0.840
Spleen lymphocytes [2]; 400 mg/kg, KLH 0.025 μg/well, Day 17
  Lymphocyte Stimulation Index: 1.03
Spleen lymphocytes [2]; 400 mg/kg, KLH 0.05 μg/well, Day 17
  Lymphocyte Stimulation Index: 0.667
Spleen lymphocytes [2]; 400 mg/kg, KLH 0.5 μg/well, Day 17
  Lymphocyte Stimulation Index: 0.232
Spleen lymphocytes [2]; 400 mg/kg, KLH 1.0 μg/well, Day 17
  Lymphocyte Stimulation Index: 0.589
